# Laboratory results published in patent US7635716B2, “Substituted cyclopentanes or cyclopentanones as therapeutic agents” (Allergan, Inc., priority 2005, dated 2009).
# Like-named read-outs stand apart in the source and are kept apart here.
# Key:
# hEP2 = hEP2 (Homo sapiens, UniProt P43116); test: hEP2 cAMP functional assay; type: cell-based; conditions: Table 1, second part
# hDP/Gqs5 = target: T1, hDP/Gqs5 (Homo sapiens, UniProt Q13258); test: FLIPR calcium signal, HEK-293(EBNA) cells; type: cell-based
# T1 construct: expressed in transfected cells; host or cells: HEK-293(EBNA) cells
# T1 sequence (Q13258 1-359): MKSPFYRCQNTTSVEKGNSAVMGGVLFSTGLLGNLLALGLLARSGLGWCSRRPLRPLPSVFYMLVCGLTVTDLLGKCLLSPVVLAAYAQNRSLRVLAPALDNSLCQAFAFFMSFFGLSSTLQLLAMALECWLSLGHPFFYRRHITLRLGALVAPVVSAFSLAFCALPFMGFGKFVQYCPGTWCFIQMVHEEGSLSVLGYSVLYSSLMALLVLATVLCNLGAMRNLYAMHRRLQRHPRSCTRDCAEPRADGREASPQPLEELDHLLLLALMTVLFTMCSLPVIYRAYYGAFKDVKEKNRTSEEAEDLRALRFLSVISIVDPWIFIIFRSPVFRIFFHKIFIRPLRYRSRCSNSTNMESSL
# normotensive dogs [1] = test: Intraocular pressure (IOP) in normotensive dogs; type: in vivo, dog; conditions: Canis lupus familiaris, topical, 120 h, dosing once daily for 5 days, read-out: maximum IOP decrease from baseline (percent)
# Procedure: (§1) (Z)-7-[(1R,2S,3R,5R)-5-Chloro-2-(3,5-dichloro-phenoxymethyl)-3-hydroxy-cyclopentyl]-hept-5-enoic acid (15b) was tested at multiple concentrations in normotensive dogs, dosing once daily for 5 days. At 0.05%, the maximum IOP decrease from baseline was 4.3 mmHg (30%) at 6 h; the maximum OSH score was 0.6 at 6 h. […] This compound was also tested in laser-induced hypertensive monkeys, using one single day dose. At 0.1%, the maximum IOP decrease from baseline was 6 mmHg (19%) at 6 h.
# (§2) (Z)-7-[(1R,2S,3R,5R)-5-Chloro-2-(3,5-dichloro-phenoxymethyl)-3-hydroxy-cyclopentyl]-hept-5-enoic acid isopropyl ester (42b) was tested in normotensive dogs at 0.05%, dosing once daily for 5 days. The maximum intraocular pressure (IOP) decrease from baseline was 3 mmHg (19%) at 6 h; the maximum ocular surface hyperemia (OSH) score was 0.6 at 74 h. This compound was also tested in laser-induced hypertensive monkeys, using one single day dose. At 0.01%, the maximum IOP decrease from baseline was 6 mmHg (16%) at 6 h.
# normotensive dogs [2] = test: Ocular surface hyperemia (OSH) in normotensive dogs; type: in vivo, dog; set-up: maximum OSH score: scale not given here; conditions: dosing once daily for 5 days
# Procedure: as §1, §2
# [3] = system: laser-induced hypertensive monkeys; test: Intraocular pressure (IOP) in laser-induced hypertensive monkeys; type: in vivo, monkey; conditions: Primates, topical, 0.1%, one single day dose, read-out: maximum IOP decrease from baseline (percent)
# Procedure: as §1, §2
# [4] = Table 1, first part, triplicate, read-out: functional data (EC50) hDP
# [5] = Table 1, second part, quantity not given, values match functional data (EC50) of first part, read-out: Other Receptors hDP
# hEP2, sequence (P43116 whole entry): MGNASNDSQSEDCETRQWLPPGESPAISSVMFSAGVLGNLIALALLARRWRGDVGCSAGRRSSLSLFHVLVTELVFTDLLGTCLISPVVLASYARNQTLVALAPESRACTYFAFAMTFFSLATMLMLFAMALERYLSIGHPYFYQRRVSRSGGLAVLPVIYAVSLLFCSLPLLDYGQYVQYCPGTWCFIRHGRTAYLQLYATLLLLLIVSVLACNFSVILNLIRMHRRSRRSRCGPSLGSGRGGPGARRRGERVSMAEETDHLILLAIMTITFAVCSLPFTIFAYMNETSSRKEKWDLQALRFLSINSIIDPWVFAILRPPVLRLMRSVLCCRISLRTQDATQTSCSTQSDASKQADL
smiles,measurement,setting,value
"O=C(O)CCCCCC[C@H]1C(=O)CC[C@@H]1COc1ccccc1 [Example 6, 7-((1R,5S)-2-Oxo-5-phenoxymethyl-cyclopentyl)-heptanoic acid]",EC50,hEP2,234 nM
same,EC50,hDP/Gqs5; [4],> 10 µM
same,EC50,hDP/Gqs5; [5],> 10 µM
"O=C(O)CCC/C=C\C[C@@H]1[C@@H](COc2ccccc2)[C@H](O)C[C@H]1Cl [Example 8, (Z)-7-((1R,2S,3R,5R)-5-Chloro-3-hydroxy-2-phenoxymethyl-cyclopentyl)-hept-5-enoic acid]",EC50,hDP/Gqs5; [4],> 10 µM
same,EC50,hDP/Gqs5; [5],> 10 µM
"O=C(O)CCCCCC[C@@H]1[C@@H](COc2ccccc2)[C@H](O)C[C@H]1Cl [Example 10, 7-((1R,2S,3R,5R)-5-Chloro-3-hydroxy-2-phenoxymethyl-cyclopentyl)-heptanoic acid]",EC50,hEP2,47 nM
same,EC50,hDP/Gqs5; [4],> 10 µM
same,EC50,hDP/Gqs5; [5],> 10 µM
"O=C(O)CCC/C=C\C[C@@H]1[C@@H](COc2cc(Cl)cc(Cl)c2)[C@H](O)C[C@H]1Cl [Example 12, (Z)-7-[(1R,2S,3R,5R)-5-Chloro-2-(3,5-dichloro-phenoxymethyl)-3-hydroxy-cyclopentyl]-hept-5-enoic acid]",inhibition in vivo at 0.05 %,normotensive dogs [1]; 0.05%,30%
same,inhibition in vivo at 0.1 %,normotensive dogs [1]; 0.1%,34%
same,maximum OSH score,normotensive dogs [2]; 0.05%,0.6
same,time of maximum OSH score,normotensive dogs [2]; 0.05%,6 h
same,maximum OSH score,normotensive dogs [2]; 0.1%,1.3
same,time of maximum OSH score,normotensive dogs [2]; 0.1%,6 h
same,EC50,hEP2,0.9 nM
same,EC50,hDP/Gqs5; [4],> 10 µM
same,EC50,hDP/Gqs5; [5],> 10 µM
same,inhibition in vivo at 0.1 %,[3],19%
"O=C(O)CCCCCC[C@@H]1[C@@H](COc2cc(Cl)cc(Cl)c2)[C@H](O)C[C@H]1Cl [Example 14, 7-[(1R,2S,3R,5R)-5-Chloro-2-(3,5-dichloro-phenoxymethyl)-3-hydroxy-cyclopentyl]-heptanoic acid]",EC50,hEP2,14 nM
same,EC50,hDP/Gqs5; [4],> 10 µM
same,EC50,hDP/Gqs5; [5],> 10 µM
